Results taken from patent US3960877A, “N-monosubstituted-2,3-pyridinedicarboxamides, and related compounds” (priority 1974, dated 1976).

Columns and labels:
Format in all cases: in vivo
[1] = tested on: Alfalfa; test: Preemergence herbicidal activity, % control of plant growth; conditions: Medicago sativa, pre-emergence, 504 h, 16 lb/acre, about 3 weeks
Description: (§1) By "preemergence" is meant that the compound is applied to the soil prior to emergence of the weed species sought to be controlled. This term, as used herein, also means the application of the herbicidal compounds falling within the scope of this disclosure to areas wherein useful or desirable plants are either growing or have been sown, but where the undesirable plants sought to be controlled have not as yet emerged.
(§2) In using the compound, seeds of the types of plants set forth in Table II were sown in fresh soil. In the preemergence test the soil was sprayed with a solution of the test compound immediately after the seeds were planted, and before any noticeable growth developed. The solution was about a 2 percent by weight solution of the compound in acetone and/or alcohol. The compound was applied at the rate of 16 pounds per acre of soil surface.
(§3) Approximately 3 weeks after spray application, the herbicidal activity of the compound was determined by visual observation of the treated area in comparison with untreated control areas. These observations are reported below in Table II wherein the average activity rating is reported as the percent control of plant growth.
(§4) *Preemergence test: compound applied at rate of 16 lb/acre

[2] = tested on: Barnyard Grass; test: as above; conditions: Echinochloa crus-galli, pre-emergence, 504 h; barnyard grass; 16 lb/acre; about 3 weeks
Description: as §1, §2, §3, §4

[3] = tested on: Cheatgrass; test: as above; conditions: Bromus tectorum, pre-emergence, 504 h, 16 lb/acre, about 3 weeks
Description: as §1, §2, §3, §4

[4] = tested on: Chickweed; test: as above; conditions: pre-emergence, 504 h, 16 lb/acre, about 3 weeks
Description: as §1, §2, §3, §4

[5] = tested on: Corn; test: as above; conditions: Zea mays, pre-emergence, 504 h, 16 lb/acre, about 3 weeks
Description: as §1, §2, §3, §4

[6] = tested on: Crabgrass; test: as above; conditions: Digitaria sanguinalis, pre-emergence, 504 h, 16 lb/acre, about 3 weeks
Description: as §1, §2, §3, §4

[7] = tested on: Cucumber; test: as above; conditions: Cucumis sativus, pre-emergence, 504 h, 16 lb/acre, about 3 weeks
Description: as §1, §2, §3, §4

[8] = tested on: Curled Dock; test: as above; conditions: pre-emergence, 504 h, 16 lb/acre, about 3 weeks
Description: as §1, §2, §3, §4

[9] = tested on: Foxtail; test: as above; conditions: Setaria, pre-emergence, 504 h, 16 lb/acre, about 3 weeks
Description: as §1, §2, §3, §4

[10] = tested on: Johnsongrass; test: as above; conditions: Sorghum halepense, pre-emergence, 504 h, 16 lb/acre, about 3 weeks
Description: as §1, §2, §3, §4

[11] = tested on: Lambsquarters; test: as above; conditions: Chenopodium album, pre-emergence, 504 h, 16 lb/acre, about 3 weeks
Description: as §1, §2, §3, §4

[12] = tested on: Nutgrass; test: as above; conditions: pre-emergence, 504 h, 16 lb/acre, about 3 weeks
Description: as §1, §2, §3, §4

[13] = tested on: Pigweed; test: as above; conditions: Amaranthus retroflexus, pre-emergence, 504 h, 16 lb/acre, about 3 weeks
Description: as §1, §2, §3, §4

[14] = tested on: Snapbeans; test: as above; conditions: pre-emergence, 504 h, 16 lb/acre, about 3 weeks
Description: as §1, §2, §3, §4

[15] = tested on: Velvetleaf; test: as above; conditions: Abutilon theophrasti, pre-emergence, 504 h, 16 lb/acre, about 3 weeks
Description: as §1, §2, §3, §4

[16] = tested on: Wild Oats; test: as above; conditions: Avena fatua, pre-emergence, 504 h, 16 lb/acre, about 3 weeks
Description: as §1, §2, §3, §4

[17] = tested on: Yellow Rocket; test: as above; conditions: pre-emergence, 504 h, 16 lb/acre, about 3 weeks
Description: as §1, §2, §3, §4

[18] = tested on: Alfalfa; test: Postemergence herbicidal activity, % control of plant growth; conditions: Medicago sativa, post-emergence, 264 h, 8 lb/acre, about 11 days
Description: (§5) By the term "postemergence" is meant that the compound is applied to the plant sought to be controlled after it has emerged from the soil surface. This term is also used to describe the application of herbicidally active compounds to soil surface in and around growing plants sought to be controlled for purposes of effecting root absorption by the undesirable plant species.
(§6) In the postemergence test the soil and developing plants were sprayed approximately 2 weeks after the seeds were sown. The compound was applied at the rate of 8 pounds per acre from about a 2 percent by weight solution of the test compound in acetone and/or alcohol. The postemergence herbicidal activity was measured in the same way as the preemergence activity; i.e. visual observation approximately 11 days after spraying, and expressed as the percent control of plant growth.
(§7) **Postemergence test: compound applied at rate of 8 lb/acre

[19] = tested on: Barnyard Grass; test: as above; conditions: Echinochloa crus-galli, post-emergence, 264 h, 8 lb/acre, about 11 days
Description: as §5, §6, §7

[20] = tested on: Cheatgrass; test: as above; conditions: Bromus tectorum, post-emergence, 264 h, 8 lb/acre, about 11 days
Description: as §5, §6, §7

[21] = tested on: Chickweed; test: as above; conditions: post-emergence, 264 h, 8 lb/acre, about 11 days
Description: as §5, §6, §7

[22] = tested on: Corn; test: as above; conditions: Zea mays, post-emergence, 264 h, 8 lb/acre, about 11 days
Description: as §5, §6, §7

[23] = tested on: Crabgrass; test: as above; conditions: Digitaria sanguinalis, post-emergence, 264 h, 8 lb/acre, about 11 days
Description: as §5, §6, §7

[24] = tested on: Cucumber; test: as above; conditions: Cucumis sativus, post-emergence, 264 h, 8 lb/acre, about 11 days
Description: as §5, §6, §7

[25] = tested on: Curled Dock; test: as above; conditions: post-emergence, 264 h, 8 lb/acre, about 11 days
Description: as §5, §6, §7

[26] = tested on: Foxtail; test: as above; conditions: Setaria, post-emergence, 264 h, 8 lb/acre, about 11 days
Description: as §5, §6, §7

[27] = tested on: Johnsongrass; test: as above; conditions: Sorghum halepense, post-emergence, 264 h, 8 lb/acre, about 11 days
Description: as §5, §6, §7

[28] = tested on: Lambsquarters; test: as above; conditions: Chenopodium album, post-emergence, 264 h, 8 lb/acre, about 11 days
Description: as §5, §6, §7

[29] = tested on: Nutgrass; test: as above; conditions: post-emergence, 264 h, 8 lb/acre, about 11 days
Description: as §5, §6, §7

[30] = tested on: Pigweed; test: as above; conditions: Amaranthus retroflexus, post-emergence, 264 h, 8 lb/acre, about 11 days
Description: as §5, §6, §7

[31] = tested on: Snapbeans; test: as above; conditions: post-emergence, 264 h, 8 lb/acre, about 11 days
Description: as §5, §6, §7

[32] = tested on: Velvetleaf; test: as above; conditions: Abutilon theophrasti, post-emergence, 264 h, 8 lb/acre, about 11 days
Description: as §5, §6, §7

[33] = tested on: Wild Oats; test: as above; conditions: Avena fatua, post-emergence, 264 h, 8 lb/acre, about 11 days
Description: as §5, §6, §7

[34] = tested on: Yellow Rocket; test: as above; conditions: post-emergence, 264 h, 8 lb/acre, about 11 days
Description: as §5, §6, §7

Compound `CCCn1c(=O)[nH]c2cccnc2c1=O` [3-propyl-pyrido[3,2-d]pyrimidine-2,4(1H,3H)-dione] has a pest or weed control at 17933.6 g/ha [1] of 100%, a pest or weed control at 17933.6 g/ha [2] of 100% and a pest or weed control at 17933.6 g/ha [3] of 100%. It also gave a pest or weed control at 17933.6 g/ha [4] of 100%, a plant injury at 17933.6 g/ha [5] of 100% and a pest or weed control at 17933.6 g/ha [6] of 100%. The pest or weed control at 17933.6 g/ha [7] was 100%, the pest or weed control at 17933.6 g/ha [8] was 100% and the pest or weed control at 17933.6 g/ha [9] was 100%. The pest or weed control at 17933.6 g/ha [10] was 100%, the pest or weed control at 17933.6 g/ha [11] was 100% and the pest or weed control at 17933.6 g/ha [12] was 20%. The pest or weed control at 17933.6 g/ha [13] was 100%, the pest or weed control at 17933.6 g/ha [14] was 100% and the pest or weed control at 17933.6 g/ha [15] was 100%. The pest or weed control at 17933.6 g/ha [16] was 100%, the pest or weed control at 17933.6 g/ha [17] was 100% and the pest or weed control at 8966.8 g/ha [18] was 100%. For the same compound, the pest or weed control at 8966.8 g/ha [19] was 100%, the pest or weed control at 8966.8 g/ha [20] was 100% and the pest or weed control at 8966.8 g/ha [21] was 100%. For the same compound, the plant injury at 8966.8 g/ha [22] was 60%, the pest or weed control at 8966.8 g/ha [23] was 100% and the pest or weed control at 8966.8 g/ha [24] was 100%. The pest or weed control at 8966.8 g/ha [25] was 100%, the pest or weed control at 8966.8 g/ha [26] was 100% and the pest or weed control at 8966.8 g/ha [27] was 100%. It also gave a pest or weed control at 8966.8 g/ha [28] of 100%, a pest or weed control at 8966.8 g/ha [29] of 70% and a pest or weed control at 8966.8 g/ha [30] of 100%. The pest or weed control at 8966.8 g/ha [31] was 100%, the pest or weed control at 8966.8 g/ha [32] was 100% and the pest or weed control at 8966.8 g/ha [33] was 90%. For the same compound, the pest or weed control at 8966.8 g/ha [34] was 100%.
With `CCCCn1c(=O)[nH]c2nccnc2c1=O` [Lumazine, 3-butyl] the pest or weed control at 17933.6 g/ha [1] was 0%, the pest or weed control at 17933.6 g/ha [2] was 0% and the pest or weed control at 17933.6 g/ha [3] was 0%. The pest or weed control at 17933.6 g/ha [4] was 90%, the plant injury at 17933.6 g/ha [5] was 0% and the pest or weed control at 17933.6 g/ha [6] was 0%. The pest or weed control at 17933.6 g/ha [7] was 0%, the pest or weed control at 17933.6 g/ha [8] was 0% and the pest or weed control at 17933.6 g/ha [9] was 0%. The pest or weed control at 17933.6 g/ha [10] was 0%, the pest or weed control at 17933.6 g/ha [11] was 0% and the pest or weed control at 17933.6 g/ha [12] was 0%. For the same compound, the pest or weed control at 17933.6 g/ha [13] was 0%, the pest or weed control at 17933.6 g/ha [14] was 20% and the pest or weed control at 17933.6 g/ha [15] was 0%. The pest or weed control at 17933.6 g/ha [16] was 0%, the pest or weed control at 17933.6 g/ha [17] was 0% and the pest or weed control at 8966.8 g/ha [18] was 0%. It also gave a pest or weed control at 8966.8 g/ha [19] of 0%, a pest or weed control at 8966.8 g/ha [20] of 0% and a pest or weed control at 8966.8 g/ha [21] of 0%. For the same compound, the plant injury at 8966.8 g/ha [22] was 0%, the pest or weed control at 8966.8 g/ha [23] was 0% and the pest or weed control at 8966.8 g/ha [24] was 0%. For the same compound, the pest or weed control at 8966.8 g/ha [25] was 0%, the pest or weed control at 8966.8 g/ha [26] was 0% and the pest or weed control at 8966.8 g/ha [27] was 0%. The pest or weed control at 8966.8 g/ha [28] was 70%, the pest or weed control at 8966.8 g/ha [29] was 0% and the pest or weed control at 8966.8 g/ha [30] was 0%. For the same compound, the pest or weed control at 8966.8 g/ha [31] was 0%, the pest or weed control at 8966.8 g/ha [32] was 0% and the pest or weed control at 8966.8 g/ha [33] was 0%. It also gave a pest or weed control at 8966.8 g/ha [34] of 70%.
